In US20160047819A1, “METHOD FOR DIAGNOSING VAGINAL INFECTIONS” (priority 2013, published 2016):

Test system: vaginal proteome (human proteins in vaginal fluid)
Test: MS/MS proteomic analysis of vaginal fluid pools, BV-affected women before (BV) and after rifaximin/placebo treatment: human proteins
Assay type: in vivo
Settings: for Ratio: BV/R, Alpha-1-acid glycoprotein 1 / Ratio: BV/R, Alpha-1-acid glycoprotein 2 / Ratio: BV/R, Calcium-activated chloride channel regulator 4 / Ratio: BV/R, Catalase / Ratio: BV/R, Desmocollin-2 / Ratio: BV/R, Galectin-3-binding protein / Ratio: BV/R, Hemopexin / Ratio: BV/R, Ig mu chain C region / Ratio: BV/R, Immunoglobulin J chain / Ratio: BV/R, Keratin, type I cytoskeletal 10 / Ratio: BV/R, Keratin, type II cytoskeletal 1 / Ratio: BV/R, Keratin, type II cytoskeletal 2 epidermal / Ratio: BV/R, Keratin, type II cytoskeletal 5 / Ratio: BV/R, Lymphocyte-specific protein 1 / Ratio: BV/R, Myeloblastin / Ratio: BV/R, Neutrophil gelatinase-associated lipocalin / Ratio: BV/R, Perilipin-3 / Ratio: BV/R, Periplakin / Ratio: BV/R, Protein S100-A7 / Ratio: BV/R, Protein S100-A9 / Ratio: BV/R, Small proline-rich protein 3 / Ratio: BV/R, Superoxide dismutase [Cu—Zn] / Ratio: BV/R, Vitamin D-binding protein: vaginal fluid
Experimental: Proteomic analysis was performed on 9 pools of vaginal isolates, grouped according to the status of the BV infection: • H pool (from 41 healthy women); BV pool (from 39 BV-affected women); • A-R pool (from 2 women who were in remission after rifaximin treatment-group A); • A-N pool (from 8 women who were not in remission after rifaximin treatment-group A); • B-R pool (from 5 women who were in remission after rifaximin treatment-group B); • B-N pool (from 5 women who were not in remission after rifaximin treatment-group B); • C-R pool (from 4 women who were in remission after rifaximin treatment-group C); • C-N (from 5 women who were not in remission after rifaximin treatment-group C); • D-N (from 10 women who were not in remission after placebo treatment-group D). Scheme of the vaginal fluids collected for testing the diagnostic method is represented in FIG. 1.
In these figures are reported the peptides in the fractionated pools of healthy women, women affected by BV and peptides of women treated with rifaximin. The treatment with rifaximin was at dosage of 100 mg/day for 5 days; (remission, A-R; no remission, A-N), 25 mg/5 days (remission, B-R; no remission, B-N), 100 mg/2 days (remission, C-R; no remission, C-N), and placebo for 5 days (D-N). Two types of comparisons were carried out: (i) between fractionated pools of proteins from vaginal fluid of healthy women (HF) versus fractionated pool of proteins from vaginal fluid of women affected by bacterial vaginosis (BVF); (ii) between whole pools of proteins from vaginal fluid of women affected by BV treated by administering different doses of rifaximin or placebo before (BV) and after (A-R, A-N, B-R, B-N, C-R, C-N, D-N) treatment. Fractioned pools of proteins are obtained, e.g., by separating the proteins by separation on membrane filtration with different membrane porosity, prior to MS/MS analysis.
Nine volumes of acetone: HCl (10:1) were added to the supernatant of the vaginal rinsing and proteins were precipitated by centrifuging at 12000 g for 10 min. The protein pellet was dissolved in 1 mL of 70% ethanol and the sample was spun at 12000 g for 10 min. One mL of acetone was added and the proteins were further precipitated by centrifugation at 12000 g for 5 min. After removing supernatant, pellet was dried by SpeedVac concentrator (Thermo Savant ISS110, Thermo Fisher Scientific, Waltham, Mass.) and then stored at −20° C.
Protein extract was quantified using the 2-D Quant Kit (GE Healthcare, Uppsala, Sweden) according to the manufacturer's instructions.
Patients who were diagnosed for BV at the study visit V1 were included in a multicentre, double-blind, randomised, placebo-controlled study (EudraCT: 2009-011826-32), that was performed to compare the efficacy of different doses of rifaximin vaginal tablets versus placebo for the treatment of BV. The patients underwent a randomisation visit and were distributed into 4 treatment groups: group A received 100 mg rifaximin vaginal tablet once daily for 5 days (n=10), group B received 25 mg rifaximin vaginal tablet once daily for 5 days (n=10), group C received 100 mg rifaximin vaginal tablet once daily for the first 2 days and placebo vaginal tablet for the remaining 3 days (n=9), group D received placebo vaginal tablet once daily for 5 days (n=10). Study medication was administered intra-vaginally at bedtime. After 7 to 10 days from the end of the therapy a follow-up visit (V3) was performed. Remission was evaluated at V3 according to Amsel's criteria (<3) and Gram stain Nugent score (≦3) (Table 1).
Standardized vaginal rinsings with 2 mL of saline were collected for analysis at V1 and V3 by flushing and re-aspirating the fluid through a 22 Gauge needle in the left, central and right upper vaginal vaults. The vaginal rinsings were subsequently stored at −80° C. until use.
MS/MS analysis was carried out for H and BV pools and for the whole BV, A-R, A-N, B-R, B-N, C-R, C-N and D-N pools containing 50 μg of protein each. […]

[1] = A-R pool (100 mg × 5 days, in remission) vs BV pool before treatment
[2] = B-R pool (25 mg × 5 days, in remission) vs BV pool before treatment
[3] = B-R pool (25 mg × 5 days, remission) vs BV pool
[4] = B-R pool vs BV pool, differentially expressed only in B-R
[5] = C-R pool (100 mg × 2 days, in remission) vs BV pool before treatment

For `CO[C@H]1/C=C/O[C@@]2(C)Oc3c(C)c(O)c4c(O)c(c5c(nc6cc(C)ccn65)c4c3C2=O)NC(=O)/C(C)=C\C=C\[C@H](C)[C@H](O)[C@@H](C)[C@@H](O)[C@@H](C)[C@H](OC(C)=O)[C@@H]1C` [rifaximin], the “Ratio: BV/R, Alpha-1-acid glycoprotein 1” value [1] was 2.3, the “Ratio: BV/R, Alpha-1-acid glycoprotein 2” value [1] was 1.5 and the “Ratio: BV/R, Calcium-activated chloride channel regulator 4” value [1] was 2.9. For the same molecule, the “Ratio: BV/R, Catalase” value [1] was 0.0, the “Ratio: BV/R, Desmocollin-2” value [1] was −1.5 and the “Ratio: BV/R, Galectin-3-binding protein” value [1] was 3.6. For the same molecule, the “Ratio: BV/R, Hemopexin” value [1] was 1.9, the “Ratio: BV/R, Ig mu chain C region” value [1] was 1.8 and the “Ratio: BV/R, Immunoglobulin J chain” value [1] was −1.5. The “Ratio: BV/R, Keratin, type I cytoskeletal 10” value (“Ratio … type I cytoskeletal 10” for short) [1] was −2.8, the “Ratio: BV/R, Keratin, type II cytoskeletal 1” value (shortened to “Ratio … type II cytoskeletal 1”) [1] was −3.9 and the “Ratio: BV/R, Keratin, type II cytoskeletal 2 epidermal” value [1] was −4.3. The “Ratio: BV/R, Keratin, type II cytoskeletal 5” value (“Ratio … type II cytoskeletal 5” below) [1] was −16.3, the “Ratio: BV/R, Lymphocyte-specific protein 1” value [1] was −2.8 and the “Ratio: BV/R, Myeloblastin” value [1] was 0.0. For the same molecule, the “Ratio: BV/R, Neutrophil gelatinase-associated lipocalin” value [1] was 0.0, the “Ratio: BV/R, Perilipin-3” value [1] was −1.7 and the “Ratio: BV/R, Periplakin” value [1] was −3.6. For the same molecule, the “Ratio: BV/R, Protein S100-A7” value [1] was 19.2, the “Ratio: BV/R, Protein S100-A9” value [1] was 4.2 and the “Ratio: BV/R, Small proline-rich protein 3” value [1] was −6.6. The “Ratio: BV/R, Superoxide dismutase [Cu—Zn]” value (from here on “Ratio: BV/R … [Cu—Zn]”) [1] was 1.8, the “Ratio: BV/R, Vitamin D-binding protein” value [1] was 1.7 and the “number of differentially expressed human proteins” value (B-N pool vs BV pool) was 155. For the same molecule, the “Ratio: BV/R, Alpha-1-acid glycoprotein 1” value [2] was 7.8, the “Ratio: BV/R, Alpha-1-acid glycoprotein 2” value [2] was 19.5 and the “Ratio: BV/R, Calcium-activated chloride channel regulator 4” value [2] was 0.0. For the same molecule, the “Ratio: BV/R, Catalase” value [2] was 4.0, the “Ratio: BV/R, Desmocollin-2” value [2] was −2.0 and the “Ratio: BV/R, Galectin-3-binding protein” value [2] was 2.7. The “Ratio: BV/R, Hemopexin” value [2] was 9.0, the “Ratio: BV/R, Ig mu chain C region” value [2] was 8.1 and the “Ratio: BV/R, Immunoglobulin J chain” value [2] was −4.1. For the same molecule, the “Ratio … type I cytoskeletal 10” value [2] was −3.5, the “Ratio … type II cytoskeletal 1” value [2] was −6.2 and the “Ratio: BV/R, Keratin, type II cytoskeletal 2 epidermal” value [2] was −7.1. For the same molecule, the “Ratio … type II cytoskeletal 5” value [2] was −12.7, the “Ratio: BV/R, Lymphocyte-specific protein 1” value [2] was −3.2 and the “Ratio: BV/R, Myeloblastin” value [2] was 3.1. For the same molecule, the “Ratio: BV/R, Neutrophil gelatinase-associated lipocalin” value [2] was −1.5, the “Ratio: BV/R, Perilipin-3” value [2] was −2.9 and the “Ratio: BV/R, Periplakin” value [2] was −3.4. The “Ratio: BV/R, Protein S100-A7” value [2] was 5.7, the “Ratio: BV/R, Protein S100-A9” value [2] was 2.6 and the “Ratio: BV/R, Small proline-rich protein 3” value [2] was −6.6. The “Ratio: BV/R … [Cu—Zn]” value [2] was 1.5, the “Ratio: BV/R, Vitamin D-binding protein” value [2] was 17.8 and the “expression change of Kininogen-1” value [3] was −88.6 ratio. For the same molecule, the “expression change of Prostate stem cell antigen” value [3] was 63.8 ratio, the “expression change of Stanniocalcin-1” value [3] was 113.1 ratio and the “number of differentially expressed human proteins” value (B-R pool vs BV pool) was 214. The “expression change of Ig heavy chain V-III region BUT” value [4] was −1.6 ratio, the “expression change of Ig heavy chain V-III region VH26” value [4] was −1.5 ratio and the “expression change of Kallikrein-13” value [4] was 1.5 ratio. The “expression change of Neutrophil gelatinase-associated lipocalin” value [4] was 1.5 ratio, the “expression change of Zinc-alpha-2-glycoprotein” value [4] was −9.4 ratio and the “Ratio: BV/R, Alpha-1-acid glycoprotein 1” value [5] was 0.0. For the same molecule, the “Ratio: BV/R, Alpha-1-acid glycoprotein 2” value [5] was −1.9, the “Ratio: BV/R, Calcium-activated chloride channel regulator 4” value [5] was 1.8 and the “Ratio: BV/R, Catalase” value [5] was 2.3. The “Ratio: BV/R, Desmocollin-2” value [5] was 0.0, the “Ratio: BV/R, Galectin-3-binding protein” value [5] was 0.0 and the “Ratio: BV/R, Hemopexin” value [5] was 1.7. The “Ratio: BV/R, Ig mu chain C region” value [5] was 0.0, the “Ratio: BV/R, Immunoglobulin J chain” value [5] was −2.2 and the “Ratio … type I cytoskeletal 10” value [5] was 0.0. For the same molecule, the “Ratio … type II cytoskeletal 1” value [5] was −2.3, the “Ratio: BV/R, Keratin, type II cytoskeletal 2 epidermal” value [5] was 0.0 and the “Ratio … type II cytoskeletal 5” value [5] was −2.5. For the same molecule, the “Ratio: BV/R, Lymphocyte-specific protein 1” value [5] was 0.0, the “Ratio: BV/R, Myeloblastin” value [5] was 4.0 and the “Ratio: BV/R, Neutrophil gelatinase-associated lipocalin” value [5] was 0.0. For the same molecule, the “Ratio: BV/R, Perilipin-3” value [5] was −2.3, the “Ratio: BV/R, Periplakin” value [5] was −2.0 and the “Ratio: BV/R, Protein S100-A7” value [5] was 2.5. The “Ratio: BV/R, Protein S100-A9” value [5] was 0.0, the “Ratio: BV/R, Small proline-rich protein 3” value [5] was −4.4 and the “Ratio: BV/R … [Cu—Zn]” value [5] was 0.0.
